Reference: patent US20120003298A1, “METHODS FOR INDUCING AN IMMUNE RESPONSE” (priority 2010, published 2012)

Tests used:
[1] = Solubility observations in the text
[2] = Stability on storage by HPLC (solid or chloroform solution; temperature, light); settings: for HPLC % at RRT = 1: SC12
Description: At this point, a stability study was conducted on batch CH730/16/8g.
The samples were analyzed at t=0 and after 20 days.

human whole blood = assay: Cytokine secretion in human whole blood assay, ELISA; type: cell-based; settings: whole blood, 6 hours
Description: Before drawing the blood, the compounds were added to 96 well round bottom plates in a 10× diluted sample at 20 ul. The compounds were diluted in RPMI media without serum but with antibiotics. Antibiotics were added at a 10× concentration. After drawing the blood, the whole blood sample was gently mixed to obtain a homogeneous sample, and 180 ul was added to each well.
All compounds were setup in concentrations at 0-0.01-0.03-0.1-0.5-2.0-10.0 micromolar as the final concentration. Vehicle control was DMSO control, where we used the highest concentration used for the compounds. After addition of blood, all plates were gently agitated at 37° C. and 5% CO2 until harvest.
For the 6 hours time point, the plate was centrifuged 500×g. Supernatant (SN) was transferred to a tube and centrifuged at 10.000×g for 10 min to get rid of cells and protein aggregates. The clarified supernatant was frozen at −80° C. until analysis.
The SN was removed to another tube and centrifuged at 10.000×g for 10 min. to get rid of aggregates etc. The clarified supernatant was frozen at −80° C. until analysis.
Concentrations of cytokines were determined by ELISA from R&D Systems. The results were analyzed in Graph Pad Prism in order to prepare dose-response
curves, and for determination of EC50 values. FACS analysis was made by using Becton-Dickinson FACSDiva software and subsequently illustrated in Graph Pad Prism.

PBMCs = assay: IL-6 and TNF-alpha secretion in PBMC model (Model 2), ELISA; type: cell-based, human; settings: three donors
CYP2C9 = biological target: T1, CYP2C9 (Homo sapiens, UniProt P11712); assay: Fluorescent High Throughput P450 assay, CYP2C9; type: biochemical
T1 construct: purchased Gentest
Description: Inhibition of the P450 isoforms was measured in specific assays using specific substrates that become fluorescent upon CYP metabolism. Compounds, dissolved in ACN (acetonitrile) (CYP2E1, CYP2C8, CYP2B6, CYP3A5) or DMSO (all remaining isoforms), were tested in duplicate (n=2) in concentration-response curves (eight concentrations) in a 96-well plate containing incubation/NADPH regenerating buffer. Specific isoenzymes and substrates were added and incubated at 37° C. Reactions were terminated at different times, depending on the assays, and plates read on a Fluoroskan Ascent at the appropriate emission/excitation wavelengths. Concentration-response curves performed in duplicate for known inhibitors for each isoenzyme were tested in every assay as positive control.

[3] = system: 73 primary molecular targets; assay: Radioligand binding assay among 73 primary molecular targets; settings: SC12 tested at 30 microM
[4] = Intrabladder application, serum cytokines (Luminex) and histology; type: in vivo, mouse
Description: Female C57BU6 mice were anesthetized with ketamine/xylazine. The 50 microliter formulated compounds were intravesically administered for twenty minutes at each treatment. The treatment schedule and doses are in Table 35 and 36, respectively. The levels of cytokines (IL-6, IL-12, and TNF-alpha) were determined by Luminex assay. Paraffin sections were prepared and H & E staining performed.

RAW.264 cells = assay: Intracellular uptake in RAW.264 cells, LC-MS; type: in vitro ADME; settings: 10 microM
Description: 5×10^6 RAW.264 cells were adhered overnight in 10 cm tissue culture dishes. […] […] Supernatant (2 ml) and cells (pellets) were collected by trypsinization and frozen at […] for subsequent analysis by LC-MS.

[5] = system: Salmonella typhimurium TA1535, TA1537, TA98, TA100; assay: Bacterial mutation assay, Salmonella typhimurium; type: cell-based
Description: The five tester strains TA1535, TA1537, TA98, TA100 and WP2 uvrA were used. Experiments were performed both in the absence and presence of metabolic activation, using liver S9 fraction from rats pre-treated with phenobarbitone and betanaphthoflavone. SC12 was used as a solution in dimethylsulfoxide (DMSO).

MB49 cells = assay: Mouse bladder cancer model, intravesical treatment (Experiment 24); type: in vivo
Description: A set of experiments was conducted with SC12 in various solutions, in a mouse bladder cancer model.
7-9 week old C57BU6 mice were implanted with 1×10^6 MB49 cells after 0.1% poly L lysine treatment on day 0. […] On day 11, mice were sacrificed and organs were harvested.

[6] = system: myeloid CD11c+/CD123− DCs; assay: FACS, myeloid DC activation in whole blood; type: cell-based, human; settings: 24 hours; 0.1 and 0.5 uM
Description: The FACS analysis for donor 1 and donor 2 was made on another day than donor 3. The compound concentrations were as follows:
B cell activation: 2 and 10 uM mDC/pDC: 0.1 and 0.5 uM
The FACS analysis was used to identify whether the test compounds could induce activation of B cells, and two different subsets of dendritic cells, namely the myeloid CD11c+/CD123− DCs and the plasmacytoid CD11c−/CD123+DCs. The following markers were studied to identify the activation status of the different subsets:
The FACS staining was performed according to the manufacturer's instructions. Lysis of red blood cells was performed before FACS staining in order to minimize auto-florescence. To include as many B cells and DCs in the study as possible the FACS analyses were performed on 500,000 cells in total for each staining. A P1 gate was set only to include relevant cells on FSC vs. SSC (see FIGS. 12-15). The results of the individual analysis were present as Mean Fluorescence Intensity (MFI) values, for certain activation marker in a given gate setting, represent the actual cell subset. The isotype background values have been used to set the gates so that a maximum at 2% of unspecific stained cells could be found in the positive gates.
The analysis of myeloid DCs was based on HLA-DR+/CD11c+/CD123-cells, thus all analyzed cells was included in the HLA-DR+(P3) gate and CD11c+/CD123− (Q4) gate (see gates in FIGS. 13-15).

[7] = system: AY-27 rat bladder cancer cell-line; assay: Orthotopic rat bladder cancer model, intravesical instillation; settings: of 14 per group
[8] = system: Cutaneous Squamous Cell Carcinoma (SCC) cell lines SCL-I, SCL-II, SCC-12, SCC-13
Description: SCC cells are grown under standard conditions (10% FBS).
Time and dose dependency of effects on total cell numbers have been investigated by real-time cell analysis, which is based on continuous monitoring of electric conductance in microtiter wells (E-plates, Roche), which corresponds to the cell numbers. […] For these assays 4 cell lines may be used to obtain a representative overview on the effects on SCC cells.

OVA specific Ig = assay: Adjuvanticity with ovalbumin (OVA), subcutaneous immunization; type: in vivo, mouse
Description: For the adjuvanticity experiments, mice were subcutaneously immunized with 20 pg ovalbumin (OVA) with 10 nmol or 100 nmol (TLR7 agonist equivalent dose) per mouse in various TLR7 conjugates on days 0 and 7. Sera were collected on days 0, 7, 14, 21, 28, 42, and 56. Mice immunized with saline or OVA mixed with vehicle served as controls. Mice were sacrificed on day 56.
Immunization occurs on day 0 and 7. Serum collection day is on 0, 7, 14, 21, 28, 42 and 56 days.

T1 sequence (P11712 whole entry): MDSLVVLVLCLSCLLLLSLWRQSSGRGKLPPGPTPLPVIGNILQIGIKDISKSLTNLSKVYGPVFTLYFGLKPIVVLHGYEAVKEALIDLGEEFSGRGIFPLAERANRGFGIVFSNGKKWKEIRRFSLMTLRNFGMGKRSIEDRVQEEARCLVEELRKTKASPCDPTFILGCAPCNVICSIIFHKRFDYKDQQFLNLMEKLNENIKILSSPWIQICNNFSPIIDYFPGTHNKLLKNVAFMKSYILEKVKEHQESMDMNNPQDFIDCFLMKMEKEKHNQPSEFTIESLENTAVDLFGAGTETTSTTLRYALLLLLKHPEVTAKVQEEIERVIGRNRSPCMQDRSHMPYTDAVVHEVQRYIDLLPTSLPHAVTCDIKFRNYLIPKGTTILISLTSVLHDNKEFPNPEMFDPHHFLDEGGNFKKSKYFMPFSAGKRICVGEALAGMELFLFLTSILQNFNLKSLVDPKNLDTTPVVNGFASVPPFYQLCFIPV

SMILES: CCCCCCCCCCCC(=O)OCC(COP(=O)(O)OCCNC(=O)c1ccc(Cn2c(=O)[nH]c3c(N)nc(OCCOC)nc32)cc1)OC(=O)CCCCCCCCCCC (stereo not shown) [SC12]
- solubility ([1]; P450 assays, especially in ACN): low solubility
- precipitation in bacterial mutation assay ([1]; toxicity test, two highest concentrations (5000 and 1580 micrograms/plate), end of incubation): Precipitation
- HPLC % at RRT = 1 ([2]; Solid, RT and light, t = 20 days): RRT = 1: 87.8%
- HPLC % at RRT = 1 ([2]; Solid, external T and light, t = 20 days): RRT = 1: 84.0%
- HPLC % at RRT = 1 ([2]; Solution in CHCl3, RT and light, t = 0): RRT = 1: 90.3%
- HPLC % at RRT = 1 ([2]; Solution in CHCl3, RT and light, t = 20 days): RRT = 1: 88.0%
- stability compared with compound A ([2]; storage 20 days): more stable than compound A
- IL-10 production (human whole blood): no IL-10 production was seen
- potency for TNF-alpha secretion (PBMCs): on average slightly more potent than compound A
- inhibition of CYP2C9 (CYP2C9): weak inhibition
- binding to receptors associated with pain-related syndromes (e.g. adenosine and sodium channel) [3]: did not bind this type of receptors
- serum IL-12 ([4]; day 0, 2 hour time point, intravesical about 207 nmoles in 50 μl): elevated levels of IL-12
- bladder histology, cell infiltration ([4]; day 7): immune cell infiltration in the bladder
- Intracellular Concentration % of total (RAW.264 cells; Incubation 1 hours): 18.5 % of total
- Intracellular Concentration % of total (RAW.264 cells; Incubation 6 hours): 20.6 % of total
- Intracellular Concentration % of total (RAW.264 cells; Incubation 18 hours): 21.4 % of total
- toxicity to tester strains ([5]; 50.0-5000 micrograms/plate, absence or presence of S9): No toxicity was observed with any tester strain at any dose level
- reverse mutation ([5]; up to 5000 micrograms/plate, absence or presence of S9 metabolism): does not induce reverse mutation
- serum IL-6 and TNF-alpha (MB49 cells; Experiment 1, in Phosal 50, 50 microliters, 20 minutes, 2 h and 24 h): under the detection levels
- bladder histology, cell infiltration (MB49 cells; Experiment 4, SC12 0.38%, MB49 implanted bladder, day 11): more monocyte infiltration
- CCR7 expression in mDCs (MFI, words) [6]: less potent stimulator of CCR7 expression
- CD80 expression in mDCs (MFI, words) [6]: noteworthy CD80 expression in all three donors
- CD86 expression in mDCs (MFI, words) [6]: weak CD86 expression in donor 2 and 3, but not in donor 1
- Number of rat bladders Tumor free [7]: 6
- Number of rat bladders with pT2 Tumor [7]: 7
- Number of rat bladders with pTa Tumor [7]: 1
- Tumor free, share of group [7]: 42.9%
- pT2 Tumor, share of group [7]: 50.0%
- pTa Tumor, share of group [7]: 7.1%
- cell numbers, real-time cell analysis ([8]; FIG. 11): reduced cell numbers
- morphology and proliferation ([8]; day 3, 120 microM): cell detachment, morphological changes and inhibition of proliferation
- adjuvant potency, Th1 immune response (OVA specific Ig; 100 nmoles SC12 equivalent to 10 nmoles compound A): 10 times less potent than compound A or compound A*
- antigen specific IgG2a (OVA specific Ig; OVA 20 μg with 10 or 100 nmoles, days 0 and 7): significantly higher than the immunization with OVA alone
- OVA-specific IgG1 (OVA specific Ig; mouse, in vivo): not found to induce high levels of OVA-specific IgG1
